Reference: patent US20170173008A1, “ANTIMICROBIAL AGENTS AND SCREENING METHODS” (PRESIDENT AND FELLOWS OF HARVARD COLLEGE, priority 2014, published 2017)
≈ marks a conversion by molar mass, not a printed value. Entries after “also recorded” stand apart in the source; their conditions may differ. Read-outs that look alike come from different tables or passages of the source.

Assays:
DsbB [1] = molecular target: DsbB (Escherichia coli, UniProt P0A6M2); experiment: Oxidation of DsbA by DsbB in growing E. coli (in vivo alkylation assay); conditions: liquid minimal medium
Procedure: Second, we measured MICs of the strongest inhibitors in terms of their effects on the oxidation of DsbA by DsbB and on the inhibition of disulfide bond formation in growing liquid cultures. […] The oxidation of DsbA was assessed by a standard alkylation assay for free cysteines in DsbA.
The in vivo chemical alkylation procedure was done as described previously (Chng S et al. Science 337, 1665-1668 (2012)). […] A 500 μl culture aliquot was then transferred to a 1.5 ml tube and precipitated with 50 μl of trichloroacetic acid (TCA, 100%, Mallinckrodt Baker). The mixture was incubated on ice for 10 min and precipitated proteins were pelleted at 18 000 g for 10 min. The protein pellet was washed with 600 μl ice-cold acetone and incubated on ice for 10 min. The protein was re-pelleted by centrifugation at 18 000 g for 3 min and left to air-dry at room temperature. The TCA-precipitated proteins were either directly subjected to alkylation or first reduced before alkylation. For reduction, proteins were incubated in 100 μl 100 mM Tris HCl, pH 8.0 containing 0.1% SDS and 100 mM dithiothreitol (DTT, Invitrogen) for 30 min at room temperature. M63 (500 μl) medium was added and the reduced proteins were re-precipitated with TCA and further washed with acetone. […]

DsbB [2] = molecular target: T1, DsbB (Escherichia coli, UniProt P0A6M2, C49V/C8A); experiment: cell-based; assay type: cell-based, E. coli; conditions: for EC50 RATIO (EC50 compound 16/EC50): E. coli DHB7935, liquid media
T1 construct: expressed in transfected cells; host or cells: E. coli DHB7935 (HK295 ΔdsbB λatt::malF-lacZ102, φ80::pDSW206dsbBhis6-c-myc)

[3] = test system: RcsF, a substrate of DsbA; experiment: Disulfide bond formation in RcsF in growing E. coli liquid culture; assay type: cell-based; conditions: liquid minimal medium
purified EcDsbB = molecular target: T2, purified EcDsbB (Escherichia coli, UniProt P0A6M2, C49V/C8A); experiment: In vitro assay of purified DsbB (ubiquinone reduction); assay type: biochemical, E. coli
T2 construct: made in house; host or cells: E. coli
Source text: In addition to the in vivo assays of MICs, we have purified DsbB from E. coli and assessed the concentration dependence for inhibition of the enzyme's activity in oxidizing DsbA.
In this assay, we determine the concentration of a compound necessary to reduce the activity of purified DsbB enzyme by 50%. DsbB uses ubiquinone as a co-factor for the generation of disulfide bonds. DsbB oxidizes DsbA and reduces ubiquinone. When it is in the oxidized state, ubiquinone absorbs strongly at 275 nm but it has a diminished absorbance when it is in the reduced state at the same wavelength. Therefore, DsbB activity can be measured by the reduction of ubiquinone and this is assessed by following the decrease of absorbance of ubiquinone at 275 nm. The assay uses 20 μM purified and DTT-reduced DsbA, 20 uM UbQ-5, and 2 nM purified DsbB at pH6.0.
We tested several compounds for their inhibitory effect on EcDsbB-mediated ubiquinone reduction using purified enzymes. In this assay, reduced DsbA provides the source of electrons that are used by EcDsbB to reduce ubiquinone-5. The compounds show dose-dependent inhibition of EcDsbB with half-maximal inhibitory concentrations (IC50) in the low-μM range.

E. coli DsbB = E. coli DsbB (Escherichia coli, UniProt P0A6M2); experiment: Blue/white beta-galactosidase agar assay, DsbB-based E. coli strain; assay type: cell-based; conditions: for MIC for blue color appearance / minimal inhibitory concentration of DsbB: β-galactosidase agar media assay
VKOR of M. tuberculosis = molecular target: T3, VKOR of M. tuberculosis (Mycobacterium tuberculosis, UniProt I6X5W1); assay type: cell-based; conditions: agar assay
T3 sequence (I6X5W1 1-210): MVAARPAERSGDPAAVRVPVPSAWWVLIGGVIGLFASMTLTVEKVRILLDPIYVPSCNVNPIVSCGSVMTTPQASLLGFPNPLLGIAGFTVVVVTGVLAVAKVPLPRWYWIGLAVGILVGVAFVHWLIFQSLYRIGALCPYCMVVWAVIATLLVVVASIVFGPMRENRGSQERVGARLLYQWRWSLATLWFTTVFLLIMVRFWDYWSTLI

DsbB-DsbAC33A dimer = molecular target: T4, DsbB-DsbAC33A dimer (Escherichia coli, UniProt P0A6M2, C49V/C8A); experiment: Mass spectrometry of DsbB-DsbAC33A complex treated with compound; assay type: binding, E. coli
T4 construct: made in house
Procedure: Since the theoretical molecular weight of compound 16.6 is 289.54 Da, the 35.9-Da mass loss may represent a leaving chloride ion. This mass adduct was not observed when either DsbB (oxidized), DsbA (reduced) or DsbAC33A, alone was treated with the compound (FIG. 7C).

[4] = test system: DsbBs from other gram-negative pathogens; assay type: cell-based; conditions: agar assay, 384-well plates

E. coli DsbB, sequence (P0A6M2 whole entry): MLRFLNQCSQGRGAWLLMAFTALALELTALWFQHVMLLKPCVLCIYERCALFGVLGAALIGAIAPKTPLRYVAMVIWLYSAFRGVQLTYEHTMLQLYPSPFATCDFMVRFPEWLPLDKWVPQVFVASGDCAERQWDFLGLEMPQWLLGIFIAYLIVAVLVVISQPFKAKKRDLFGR
T2 sequence (P0A6M2 whole entry C8A/C49V): as the sequence (P0A6M2 whole entry) above, with C8A, C49V counted along it
T1 sequence (P0A6M2 whole entry C8A/C49V): as the sequence (P0A6M2 whole entry) above, with C8A, C49V counted along it
DsbB (Escherichia coli, UniProt P0A6M2), sequence (P0A6M2 whole entry): as the sequence (P0A6M2 whole entry) above
T4 sequence (P0A6M2 whole entry C8A/C49V): as the sequence (P0A6M2 whole entry) above, with C8A, C49V counted along it

SMILES | MIC, oxidation of DsbA by DsbB (DsbB [1]) | EC50 (DsbB [2]) | EC50 RATIO (EC50 compound 16/EC50) (DsbB [2]) | MIC, disulfide bond formation in RcsF [3] | IC50 (purified EcDsbB; IC50 (μM), Table 9) | IC50 (purified EcDsbB; IC50, purified DsbB) | MIC for blue color appearance / minimal inhibitory concentration of DsbB (E. coli DsbB) | concentration up to which no inhibition of VKOR was observed (VKOR of M. tuberculosis) | fold more inhibitory than compound 16 (DsbB [2]) | adduct on Cys44 of DsbB (DsbB-DsbAC33A dimer; high-resolution tandem mass spectrometry, chymotrypsin digest) | adduct with the DsbB-DsbAC33A dimer (DsbB-DsbAC33A dimer; ion-trap mass spectrometry) | inhibition of DsbBs of other gram-negative bacteria expressed in E. coli, in words [4] | IC50 (purified EcDsbB; in vitro assay, read-out: IC50) | difference between inhibition of DsbB and of VKOR (E. coli DsbB; MIC DsbB versus highest concentration without VKOR inhibition)
O=c1c(Cl)c(Cl)cnn1Cc1ccccc1 [Compound 16] | 5 µM | 5.1 µM | 1.00 | 100 µM (≈ 25.5 µg/mL) | 1.86 µM | 1.85 µM | 5.7 µM | – | – | – | – | – | – | –
O=c1c(Cl)c(Cl)cnn1Cc1ccccc1Cl [Compound 16.6] | 0.7 µM | 0.16 µM | 23.03 | – | – | – | 0.53 µM | > 50 µM | 23 fold | 252.995 Da | 253.6 Da | most effective inhibitor; also recorded: one of the most effective inhibitors | 0.0189 µM | equal to or greater than two orders of magnitude
